Assay results from patent US20240252428A1, “METHODS OF PROVIDING BIRTH CONTROL” (THE POPULATION COUNCIL, INC., priority 2021, published 2024).
Each block holds one compound with its values, some of them ahead of it.

What was measured:
progesterone receptor = molecular target: T1, progesterone receptor (Homo sapiens, UniProt P06401); experiment: Progesterone receptor activity of SA metabolites; assay type: biochemical
T1 sequence (P06401 1-933): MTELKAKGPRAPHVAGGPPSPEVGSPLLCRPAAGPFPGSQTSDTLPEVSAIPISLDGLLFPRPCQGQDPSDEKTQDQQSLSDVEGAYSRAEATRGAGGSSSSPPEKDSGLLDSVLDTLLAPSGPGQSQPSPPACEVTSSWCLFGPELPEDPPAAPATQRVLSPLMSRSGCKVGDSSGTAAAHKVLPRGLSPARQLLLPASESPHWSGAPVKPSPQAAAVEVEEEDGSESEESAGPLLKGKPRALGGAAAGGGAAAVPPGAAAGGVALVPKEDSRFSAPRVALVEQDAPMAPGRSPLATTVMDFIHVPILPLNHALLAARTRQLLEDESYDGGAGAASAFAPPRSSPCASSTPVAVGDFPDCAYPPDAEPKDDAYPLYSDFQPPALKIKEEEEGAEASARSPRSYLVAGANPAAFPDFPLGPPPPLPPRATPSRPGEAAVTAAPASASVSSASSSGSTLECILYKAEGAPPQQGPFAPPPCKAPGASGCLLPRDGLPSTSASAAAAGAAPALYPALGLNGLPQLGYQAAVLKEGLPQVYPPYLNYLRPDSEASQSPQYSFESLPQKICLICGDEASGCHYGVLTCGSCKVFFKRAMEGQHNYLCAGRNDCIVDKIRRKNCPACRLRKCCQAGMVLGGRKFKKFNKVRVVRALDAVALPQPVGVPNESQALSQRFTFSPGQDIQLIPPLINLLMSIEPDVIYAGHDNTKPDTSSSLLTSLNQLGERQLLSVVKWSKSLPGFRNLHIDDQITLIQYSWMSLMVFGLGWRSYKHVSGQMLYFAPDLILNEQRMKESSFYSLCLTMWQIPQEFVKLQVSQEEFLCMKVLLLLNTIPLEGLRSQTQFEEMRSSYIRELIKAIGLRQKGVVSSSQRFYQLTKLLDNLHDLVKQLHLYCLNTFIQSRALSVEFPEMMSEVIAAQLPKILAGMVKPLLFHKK
Description: The hydroxylated EE metabolites have weak estrogenic activity.

[1] = PK sub-study of the vaginal system over 13 product-use cycles (21 days in/7 days out), serum SA and EE; assay type: in vivo, human; set-up: AUC0-21 day / AUC0-1 day: concentration or dose not given beside the values
Experimental: The pharmacokinetics (PK) of the vaginal system described herein were determined during studies related to the prior approved use (i.e., 13 product-use cycles comprising a 21-day “product-in” period and a 7-day “product-out” period). Studies were conducted in 39 women who used the system for up to the 13 product-use cycles. […] Over subsequent product-use cycles, the peak serum concentrations of SA and EE declined.
During a phase 3 trial of the vaginal ring system, three centers participated in a PK sub-study. The PK sub-study was an open-label, multicenter, non-randomized phase 1 study evaluating the PK and pharmacodynamics (PD) of a self-administered vaginal ring system. Enrolled women were healthy, aged 18-38 years, who had regular cycles of 28±7 days and were sexually active with no intention of becoming pregnant for the following 13 months. Exclusion criteria were those typical for oral contraceptive assessments. Women were not permitted to use hormonal contraceptives (other than the study vaginal ring) or vaginal lubricants that could have interfered with steroid absorption during the study.
Women were instructed to use the SA/EE vaginal ring system for 13 consecutive cycles following a 21-days-in and 7-days-out regimen, with the initial ring insertion (day 1 of cycle 1) under investigator supervision at the study clinic. […] In the PK substudy, blood samples from each woman were collected 8 times (see below) per assessed cycles (1, 3, and 13) as per the protocol.
For serum SA and EE measurements, blood samples were collected on treatment days 1-5, 8, 15, and 22 during cycles 1, 3, and 13 with the serum stored at −20° C. Steroid concentrations were determined at each time point using a validated gas chromatography/tandem mass spectrometry (GC-MS/MS; Taylor Technology, Princeton, NJ); the lower limits of quantification (LLOQ) were 50 pg/mL (135 pmol/L) for SA and 10 pg/mL (33.74 pmol/L) for EE. The linear calibration range was 50.0 to 5000 pg/mL for SA and 10.0 to 1000 pg/mL for EE. The inter-assay coefficient of variation for SA was 7-15.5% and for EE 8-13% for low, medium, and high-quality control samples used during assays. The intra-assay coefficient of variation for both SA and EE was lower than 12%.

[2] = Drug-drug interaction study with vaginal miconazole formulations; assay type: in vivo; conditions: for overall increase in exposure: with 1 day or 3-day oil-based miconazole suppository; for change in exposure from the vaginal system: with water-based vaginal miconazole cream
Description: However, the use of either the 1 day or the 3-day oil-based miconazole suppository was associated with an overall increase in exposure up to 67% for EE and 32% for SA. Considering the potential long-term effect on vaginal system performance, concurrent use of oil-based vaginal suppositories should not occur with the system's use. If there is a need to treat a vaginal condition, water-based vaginal cream or oral therapy may be used concurrently with the vaginal system.

[3] = Recoverable SA and EE after storage; assay type: physicochemical; conditions: for amount recoverable from the vaginal system: over 24 months of storage at 25° C. and 60% relative humidity
Experimental: This was quite surprising as a similar trend was not observed during long-term stability studies on the cores before assembly.
• Diluent: methanol/water 58/42 v/v • Dried NES and EE before weighing (100-105° C. 3 h) • EE stock solution: Dissolved 25.0 mg of EE and diluted to 250.0 mL with methanol (duplicates, EE1 and EE2) • NES stock solution: Dissolved 50.0 mg of NES and diluted to 100.0 mL with methanol (duplicates, NES1 and NES2) • Standard solutions: • S1: Diluted 5.0 mL of NES1 and 4.0 mL of EE1 to 50.0 mL with diluent • S2: Diluted 6.0 mL of NES2 and 5.0 mL of EE2 to 50.0 mL with diluent • S3: Diluted 8.0 mL of NES1 and 7.0 mL of EE1 to 50.0 mL with diluent • S4: Diluted 10.0 mL of NES2 and 9.0 mL of EE2 to 50.0 mL with diluent • System suitability solution (SST solution): Diluted 5.0 mL acetone+7.0 mL NES1+6.0 mL EE1 to 50.0 mL with diluent.
Rings were cut into 8 pieces and each piece was divided lengthwise then transferred to an Erlenmeyer flask. • 140 mL of acetone (weight of flask was noted before and after acetone addition) was added to the flask.
• analytical column: Discovery C8, 5 μm, 150×4.6 mm (Supelco) • pre-column: Supelguard, Discovery C8, 5 μm, 20×4.0 mm (Supelco) • stationary phase: endcapped C8 (5 μm particle size) USP L7 • temperature: 30° ° C. Mobile phase: methanol/water 58/42, isocratic elution Flow rate: 1.2 mL/min Detection (assay): NES UV 240 nm, EE UV 280 nm Detection (identity): PDA (photodiode array detector) scanning 220-310 nm, NES 240 nm, EE 280 nm
Run time: 15 min System suitability: SST solution • Area precision (n=5): RSD (%)≤2.0 • Peak tailing (T): 0.8≤T≤1.5 • Blank injections: No interfering peaks Retention times: EE approximately 7 min and NES approximately 9 min Results Assay: Report the average value of three different rings and express as mg EE/ring and mg NES/ring. Results Content uniformity: Calculate the average value of ten different rings. Report with or without remarks according the guidelines outlined in the US Pharmacopeial Convention, incorporated herein by reference, and in particular USP <905>. […]

[4] = PK study in females with BMI <25 vs BMI >25; assay type: in vivo, human; conditions: 18 females BMI <25 vs 21 females BMI >25
Description: The vaginal system described herein has not been adequately evaluated in females with a body mass index of >29 kg/m2. […] Higher body weight associates with lower systemic exposure of SA and EE.

[5] = EE in serum, cycle 1, mean (SD)
[6] = EE in serum, cycle 3, mean (SD)
[7] = EE in serum, cycle 13, mean (SD)

EC50 to progesterone receptor, fold higher than that of SA (progesterone receptor): 10 fold
Compound: C=C1CC2C3CCC4CC(=O)CCC4C3CCC2(C)C1(OC(C)=O)C(C)=O (stereo not drawn) [5α-dihydro]

Cavg ([1]; EE in serum, cycle 1, mean): 0.148 nM
Cmax ([1]; EE in serum, cycle 1, mean): 0.435 nM
AUC0-1 day [1, 5]: 7,077 (2,359) pmol*hr/L
AUC0-21 day [1, 5]: 74,814 (33,026) pmol*hr/L
Cavg ([1]; EE in serum, cycle 3, mean): 0.098 nM
AUC0-1 day [1, 6]: 3,033 (1,348) pmol*hr/L
AUC0-21 day [1, 6]: 49,539 (15,839) pmol*hr/L
Cavg ([1]; EE in serum, cycle 13, mean): 0.064 nM
AUC0-1 day [1, 7]: 2,359 (1,011) pmol*hr/L
AUC0-21 day [1, 7]: 32,352 (13,817) pmol*hr/L
Cmax ([1]; female, human, serum, other: vaginal, EE in serum, cycle 3, mean): 0.202 nM
Cmax ([1]; female, human, serum, other: vaginal, EE in serum, cycle 13, mean): 0.131 nM
Tmax ([1]; female, human, serum, vaginal administration, product-use cycles 1, 3 and 13, read-out: median Tmax): ~2 h
overall increase in exposure [2]: up to 67%
change in exposure from the vaginal system [2]: no change
amount recoverable from the vaginal system [3]: decreased in a time-dependent manner
decrease in systemic exposure (AUC 0-21 day) between the two BMI groups [4]: ≤ 33%
Compound: C#C[C@]1(O)CC[C@H]2[C@@H]3CCc4cc(O)ccc4[C@H]3CC[C@@]21C [EE, 19-nor-17α-pregna-1,3,5(10)-trien-20-yne-3,17-diol]
amount recoverable from the core by extraction ([3]; cores before assembly, after extended storage): full amount of EE was found to be recoverable

Compound: C=C1C[C@H]2[C@@H]3CCC4=CC(=O)CC[C@@H]4[C@H]3CC[C@]2(C)[C@@]1(OC(C)=O)C(C)=O [SA, 16-methylene-17α-acetoxy-19-nor-pregn-4-ene-3,20-dione]
AUC0-21 day ([1]; SA in serum, cycle 1, mean): 259,740 pmol*hr/L
Cavg ([1]; SA in serum, cycle 1, mean): 0.516 nM
Cmax ([1]; SA in serum, cycle 1, mean): 3.1 nM
AUC0-1 day ([1]; SA in serum, cycle 1, mean (SD)): 40,500 (8,640) pmol*hr/L
AUC0-21 day ([1]; SA in serum, cycle 3, mean): 480,330 pmol*hr/L
Cavg ([1]; SA in serum, cycle 3, mean): 0.3537 nM
Cmax ([1]; SA in serum, cycle 3, mean): 0.98 nM
AUC0-1 day ([1]; SA in serum, cycle 3, mean (SD)): 36,450 (4,320) pmol*hr/L
AUC0-21 day ([1]; SA in serum, cycle 13, mean): 127,440 pmol*hr/L
Cavg ([1]; SA in serum, cycle 13, mean): 0.254 nM
Cmax ([1]; SA in serum, cycle 13, mean): 0.794 nM
AUC0-1 day ([1]; SA in serum, cycle 13, mean (SD)): 10,530 (3,780) pmol*hr/L
overall increase in exposure [2]: ≤ 32%
change in exposure from the vaginal system [2]: no change
amount recoverable from the vaginal system [3]: remained essentially constant
decrease in systemic exposure (AUC 0-21 day) between the two BMI groups [4]: up to 16%
